From US20240287042A1, “NOVEL COMPOUND HAVING INHIBITORY ACTIVITY AGAINST PENDRIN, AND PHARMACEUTICAL USES THEREOF” (UIF (University Industry Foundation), Yonsei University, priority 2021, published 2024)

How the values were obtained:
[1] = system: LPS-induced lung injury mouse model; assay: LPS-induced lung injury mouse model with anion supply; format: in vivo, mice; details: 5 μg/kg i.v. once 6 h after LPS
Description: Specifically, lipid polysaccharide (LPS, 200 μg/head) dissolved in 50 μL PBS was injected intranasally, and 6 hours after LPS inhalation, YPI-A4948 was intravenously administered once at 5 μg/kg, and at the same time, OH^−, HCO3^−, and SCN^− anions were administered intranasally, respectively. The mice were euthanized 24 hours after LPS inhalation to remove the lungs. Then, lung tissue H&E staining was performed to observe the degree of lung injury, and bronchoalveolar lavage fluid (BALF) was extracted in the same manner as in Example 12, and cytopathology staining using BALF total cell count, BALF protein concentration level, and Diff-Quik Stain was performed. Data provided are mean±SEM (n=3-5 per group), scale bar is 50 μm for H&E staining and cytopathology staining imaged at 400×.

[2] = system: SLC26A4 (pendrin); assay: Pendrin protein and mRNA expression after LPS in hAEC; format: cell-based, human
[3] = system: LPS-induced acute lung injury model; assay: LPS-induced acute lung injury model, i.p. pre- and post-treatment; format: in vivo, C57BL/6N mice; details: vs vehicle-treated LPS mice
Description: Wild-type male C57BL/6N mice aged 8 to 10 weeks and weighing 20-24 g were purchased from Orient Bio (Seongnam, South Korea). […] Specifically, LPS (Escherichia coli, 0111: B4, Sigma) (10 μg/g) dissolved in 50 μL PBS was administered by intranasal (i.n.) inhalation. The control group received 50 μL of sterile PBS through intranasal administration. For pretreatment, YPI-A4948 dissolved in 50 μL DMSO was administered intraperitoneally (i.p) at 0.1 mg/kg, 1.0 mg/kg and 10 mg/kg, respectively, 1 hour before LPS inhalation, and for post-treatment, YPI-A4948 was administered at 0.1 mg/kg, 1.0 mg/kg, and 10 mg/kg, respectively, 12 hours after LPS inhalation. The vehicle control group was intraperitoneally administered with 50 μL DMSO at the same time point as pretreatment and post-treatment. Mice were euthanized 48 hours after LPS inhalation to remove the lungs. In addition, BALF cytospin staining and H&E lung tissue staining were performed to observe the degree of lung injury.

[4] = i.p. 0.1, 1.0, 10 mg/kg 1 h before and 12 h after LPS

Question: Which Lung injury [1] does the source give for `Cc1ccc2[nH]c(C(=O)O)c(CC(=O)N3CCN(c4c(C)cccc4Cl)CC3)c2c1` [YPI-A4948, 3-(2-(4-(2-Chloro-6-methylphenyl)piperazin-1-yl)-2-oxoethyl)-5-methyl-1H-indole-2-carboxylic acid] here?
Answer: The Lung injury was “reduced”.

Question: And the “Lung injury improvement effect when OH−, HCO3−, SCN− anions are supplied intranasally” value [1]?
Answer: The value was “weakened only by SCN^−”.

Question: And the “Protein expression level of SLC26A4 (pendrin)” value ([2]; LPS treatment after YPI-A4948 pretreatment in vitro)?
Answer: The value was “inhibited by YPI-A4948 in a dose-dependent manner”.

Question: And the “mRNA expression level of pendrin” value ([2]; increased by LPS in vitro)?
Answer: Its value is “not statistically significantly reduced”.

Question: And the BALF protein concentration [3, 4]?
Answer: Its BALF protein concentration is “significantly reduced”.

Question: What about the “BALF total cell counts” value [3, 4] of the same molecule?
Answer: Its value is “significantly reduced”.

Question: And the “Lung injury (BALF cytospin and H&E lung tissue staining)” value ([3]; i.p. before and after LPS)?
Answer: The value was “significantly reduced”.
